Measured values from EP3807270B1, “NOVEL HETEROARYL HETEROCYCLYL COMPOUNDS FOR THE TREATMENT OF AUTOIMMUNE DISEASE” (F. Hoffmann-La Roche AG, priority 2018, dated 2019).
Each block holds one compound with its values, some of them ahead of it.

What was measured:
[1] = Human microsome stability assay; type: in vitro ADME; conditions: 1 µM test compound, 0.5 mg/mL liver microsomal protein, 37 °C
Protocol: The human microsomal stability assay is used for early assessment of metabolic stability of a test compound in human liver microsomes.
Human liver microsomes (Cat.NO.: 452117, Corning, USA;Cat.NO.:H2610, Xenotech, USA) were preincubated with test compound for 10 minutes at 37 °C in 100 mM potassium phosphate buffer, pH 7.4. The reactions were initiated by adding NADPH regenerating system. The final incubation mixtures contained 1 µM test compound, 0.5 mg/mL liver microsomal protein, 1 mM MgClz, 1 mM NADP, 1 unit/mL isocitric dehydrogenase and 6 mM isocitric acid in 100 mM potassium phosphate buffer, pH 7.4. After incubation times of 0, 3, 6, 9, 15 and 30 minutes at 37 °C, 300 µL of cold acetonitrile (including internal standard) was added to 100 µL incubation mixture to terminate the reaction. Following precipitation and centrifugation, the amount of compound remaining in the samples were determined by LC-MS/MS. Controls of no NADPH regenerating system at zero and 30 minutes were also prepared and analyzed. […] Table 6. Human liver microsome stability of the compounds of present invention

[2] = molecular target: T1, CYP2D6 (Homo sapiens, UniProt P10635); assay: CYP inhibition assay in human liver microsome; type: in vitro ADME; conditions: human liver microsomes, probe dextromethorphan, 10µM test compound, dextromethorphan substrate, <0: not or weak inhibitor, read-out: CYP 2D6 inhibition %@10µM
T1 construct: tissue BD-Gentest 452117; host or cells: human liver microsomes
Protocol: This is a high throughput screening assay used for assessment of reversible inhibition of CYP2D6 activity of test compounds in human liver microsome (HLM) in early discovery stage. Table 4. Chemicals and materials used in the CYP inhibition assay
10 mM DMSO stock solutions of test compounds were diluted in DMSO to generate 2 mM intermediate stock solution. 250 nL of intermediate stock solution were transferred in duplicate into 3 separate 384 well microtitre plates (assay-ready plates). A mixture of HLM and each substrate was made up. 45 µL of HLM substrate mix was then transferred to each well of an assay ready plate and mixed. The negative (solvent) and positive control (standard inhibitor for CYP 2D6) were included in each assay ready plate. The assay ready plate was warmed to 37 °C in an incubator over 10 minutes. 5 µL pre-warmed NADPH regenerating system was added to each incubation well to start the reaction. Final incubation volume was 50 µL. The assay plate then was placed back in the 37 °C incubator. After 10-minute incubation, incubates were quenched by addition of 50 µL 100% acetonitrile containing internal standards (20 ng/mL D3-Dextrorphan). The supernatants were collected for RapidFire/MS/MS analysis.
RapidFire online solid phase extraction/sample injection system (Agilent) coupled with API4000 triple quadrupole mass spectrometer (AB Sciex) were used for sample analysis. The mobile phase composed of acetonitrile and water supplemented with 0.1% formic acid. A C4 solid phase extraction cartridge is used for sample separation. MS detection is achieved in positive ion MRM mode.
Peak areas for substrate, metabolite and internal standard are determined using the RapidFire integrator software (version 3.6.12009.12296). Peak area ratios (PAR) of metabolite and internal standard (stable-labelled metabolite) are then calculated. The measurement window for each experiment is then defined: • PAR (0% activity)= average PAR for all incubations containing concentrated inhibitor; • Par (100% activity)= average PAR for all incubations containing no inhibitor (DMSO controls); • % Activity (test inhibitor) • =[PAR(test inhibitor)-PAR(0% activity)]/[PAR(100% activity)-PAR(0% activity)]; • % Inhibition (test inhibitor)=100-% Activity (test inhibitor).

[3] = molecular target: T2, hTLR7 (Homo sapiens, UniProt Q9NYK1); parameters: host or cells: HEK; conditions: data disclosed in US20150105370; read-out: HEK/hTLR7 IC50; cited from earlier work
T2 sequence (Q9NYK1 27-1049): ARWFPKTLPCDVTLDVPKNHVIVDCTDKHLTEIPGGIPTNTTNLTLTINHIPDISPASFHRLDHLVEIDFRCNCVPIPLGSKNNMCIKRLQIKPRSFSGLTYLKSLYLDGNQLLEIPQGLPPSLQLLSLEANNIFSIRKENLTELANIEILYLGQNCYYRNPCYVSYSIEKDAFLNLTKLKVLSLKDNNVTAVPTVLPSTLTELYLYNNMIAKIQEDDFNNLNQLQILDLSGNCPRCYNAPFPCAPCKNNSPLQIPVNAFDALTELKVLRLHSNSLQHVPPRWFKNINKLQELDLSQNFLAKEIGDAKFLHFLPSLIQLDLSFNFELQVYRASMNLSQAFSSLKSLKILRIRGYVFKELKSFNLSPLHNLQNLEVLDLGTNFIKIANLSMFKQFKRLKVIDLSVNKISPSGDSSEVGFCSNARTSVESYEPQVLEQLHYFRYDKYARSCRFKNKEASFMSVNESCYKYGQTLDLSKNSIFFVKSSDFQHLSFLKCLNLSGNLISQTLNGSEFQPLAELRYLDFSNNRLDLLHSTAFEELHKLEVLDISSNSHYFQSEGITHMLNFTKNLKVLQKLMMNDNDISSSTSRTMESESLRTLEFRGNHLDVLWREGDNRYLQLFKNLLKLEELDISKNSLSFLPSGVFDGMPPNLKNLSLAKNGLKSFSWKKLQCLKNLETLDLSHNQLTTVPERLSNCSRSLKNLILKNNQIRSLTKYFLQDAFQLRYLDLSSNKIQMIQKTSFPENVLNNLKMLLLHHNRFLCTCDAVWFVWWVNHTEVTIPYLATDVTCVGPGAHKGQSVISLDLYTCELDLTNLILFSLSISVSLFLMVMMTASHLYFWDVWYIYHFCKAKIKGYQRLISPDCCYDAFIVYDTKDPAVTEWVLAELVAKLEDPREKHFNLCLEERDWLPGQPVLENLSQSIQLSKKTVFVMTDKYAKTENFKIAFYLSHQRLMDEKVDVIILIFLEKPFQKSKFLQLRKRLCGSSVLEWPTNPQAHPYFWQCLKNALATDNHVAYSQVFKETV

[4] = molecular target: T3, hTLR9 (Homo sapiens, UniProt Q9NR96); parameters: host or cells: HEK; conditions: data disclosed in US20150105370; read-out: HEK/hTLR9 IC50; cited from earlier work
T3 sequence (Q9NR96 26-1032): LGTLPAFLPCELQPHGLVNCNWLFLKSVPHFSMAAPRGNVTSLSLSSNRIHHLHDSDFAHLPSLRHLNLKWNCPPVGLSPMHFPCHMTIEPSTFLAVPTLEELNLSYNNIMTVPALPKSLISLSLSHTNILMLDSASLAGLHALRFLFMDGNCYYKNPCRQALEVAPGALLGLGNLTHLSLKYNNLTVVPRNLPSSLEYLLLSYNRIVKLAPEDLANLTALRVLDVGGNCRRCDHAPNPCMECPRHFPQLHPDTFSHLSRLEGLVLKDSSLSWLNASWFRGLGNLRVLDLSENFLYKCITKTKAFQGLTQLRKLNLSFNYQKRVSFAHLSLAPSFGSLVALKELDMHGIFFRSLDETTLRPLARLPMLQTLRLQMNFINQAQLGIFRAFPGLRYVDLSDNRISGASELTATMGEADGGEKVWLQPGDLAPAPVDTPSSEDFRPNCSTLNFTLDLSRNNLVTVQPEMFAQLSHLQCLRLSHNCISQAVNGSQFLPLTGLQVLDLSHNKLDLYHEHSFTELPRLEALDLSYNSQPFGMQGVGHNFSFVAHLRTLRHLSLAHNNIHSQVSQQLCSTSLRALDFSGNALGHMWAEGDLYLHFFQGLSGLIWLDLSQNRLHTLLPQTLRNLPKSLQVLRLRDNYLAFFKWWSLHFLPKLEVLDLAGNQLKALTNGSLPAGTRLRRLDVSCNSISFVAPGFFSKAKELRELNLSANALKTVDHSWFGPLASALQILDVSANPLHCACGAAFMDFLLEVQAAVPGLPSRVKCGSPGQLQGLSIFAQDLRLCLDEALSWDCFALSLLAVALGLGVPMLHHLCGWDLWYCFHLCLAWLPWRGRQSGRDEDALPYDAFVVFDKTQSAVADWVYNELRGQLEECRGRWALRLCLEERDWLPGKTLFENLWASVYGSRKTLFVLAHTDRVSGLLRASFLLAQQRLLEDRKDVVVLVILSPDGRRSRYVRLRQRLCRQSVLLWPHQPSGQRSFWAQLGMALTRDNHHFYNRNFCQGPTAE

T1 sequence (P10635 whole entry): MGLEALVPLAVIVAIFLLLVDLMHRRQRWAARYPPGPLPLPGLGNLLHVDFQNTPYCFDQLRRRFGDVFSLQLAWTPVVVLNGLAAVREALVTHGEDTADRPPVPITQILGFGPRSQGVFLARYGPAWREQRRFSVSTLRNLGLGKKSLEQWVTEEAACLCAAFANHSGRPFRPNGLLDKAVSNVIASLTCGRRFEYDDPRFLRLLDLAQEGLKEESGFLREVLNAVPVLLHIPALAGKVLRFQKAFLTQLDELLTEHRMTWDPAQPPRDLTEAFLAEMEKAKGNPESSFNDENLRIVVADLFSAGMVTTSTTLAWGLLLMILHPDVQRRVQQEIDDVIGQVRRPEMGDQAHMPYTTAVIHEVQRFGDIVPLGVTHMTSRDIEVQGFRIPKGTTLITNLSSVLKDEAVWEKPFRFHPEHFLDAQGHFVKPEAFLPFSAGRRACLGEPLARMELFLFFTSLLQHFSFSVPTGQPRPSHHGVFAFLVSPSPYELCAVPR

- Clearance of Human microsome [1]: 6.15 mL/min/kg
SMILES: C[C@@H]1CN(c2cc(=O)n(C)c3ncccc23)C[C@H](CN2CCN(c3cc4c(cn3)CCNC4)CC2)O1 [Example 103, 1-methyl-4-[(2R,6S)-2-methyl-6-[[4-(5,6,7,8-tetrahydro-2,6-naphthyridin-3-yl)piperazin-1-yl]methyl]morpholin-4-yl]-1,8-naphthyridin-2-one]

- inhibition at 10 min, 10 µM [2]: 14%
SMILES: C[C@@H]1CN(c2ccc(C(F)(F)F)c3nccnc23)C[C@H](CN2CCN(c3cc4c(cn3)CCNC4)CC2)O1 [Example 91, (2R,6S)-2-methyl-6-[[4-(5,6,7,8-tetrahydro-2,6-naphthyridin-3-yl)piperazin-1-yl]methyl]-4-[8-(trifluoromethyl)quinoxalin-5-yl]morpholine]

- inhibition at 10 min, 10 µM [2]: 5%
SMILES: Cc1cnc2c(C#N)ccc(N3C[C@H](CN4CCN(c5cc6c(cn5)CCNC6)CC4)O[C@H](C)C3)c2n1 [Example 90, 2-methyl-8-[(2R,6S)-2-methyl-6-[[4-(5,6,7,8-tetrahydro-2,6-naphthyridin-3-yl)piperazin-1-yl]methyl]morpholin-4-yl]quinoxaline-5-carbonitrile]

- Clearance of Human microsome [1]: 6.54 mL/min/kg
SMILES: COc1ccc(N2C[C@H](CN3CCN(c4cc5c(cn4)CCNC5)CC3)O[C@H](C)C2)c2nccnc12 [Example 89, (2R,6S)-4-(8-methoxyquinoxalin-5-yl)-2-methyl-6-[[4-(5,6,7,8-tetrahydro-2,6-naphthyridin-3-yl)piperazin-1-yl]methyl]morpholine]

SMILES: Cc1nn(C)cc1S(=O)(=O)NC1CCN(C[C@H]2CN(c3ccc(C#N)c4ncccc34)C[C@@H](C)O2)CC1 [ER-894160]
- IC50 [3]: 199 nM
- IC50 [4]: > 10000 nM

SMILES: C[C@@H]1CN(c2ccc(C#N)c3ncccc23)C[C@H](CN2CC3COCC(C2)N3c2cnc3c(c2)CNC3)O1 [Example 37, 5-[(2S,6R)-2-[[9-(6,7-dihydro-5H-pyrrolo[3,4-b]pyridin-3-yl)-3-oxa-7,9-diazabicyclo[3.3.1]nonan-7-yl]methyl]-6-methyl-morpholin-4-yl]quinoline-8-carbonitrile]
- Clearance of Human microsome [1]: 6.72 mL/min/kg

SMILES: C[C@@H]1CN(c2ccc(C#N)c3ncccc23)C[C@H](CN2CC(NS(=O)(=O)c3ccc(F)cc3)C2)O1 [ER-894155]
- IC50 [3]: 282 nM
- IC50 [4]: > 10000 nM

SMILES: C[C@@H]1CN(c2ccc(C#N)c3ncccc23)C[C@H](CN2CC[C@@H](NC(=O)c3ccccc3)C2)O1 [ER-894544]
- IC50 [3]: 43 nM
- IC50 [4]: > 6200 nM

- Clearance of Human microsome [1]: 7.28 mL/min/kg
SMILES: C[C@@H]1CN(c2ccc(C#N)c3ncnn23)C[C@H](CN2CCN(c3cnc4c(c3)CNCC4)CC2)O1 [Example 27, 5-[(2R,6S)-2-methyl-6-[[4-(5,6,7,8-tetrahydro-1,6-naphthyridin-3-yl)piperazin-1-yl]methyl]morpholin-4-yl]-[1,2,4]triazolo[1,5-a]pyridine-8-carbonitrile]

- Clearance of Human microsome [1]: 8.54 mL/min/kg
SMILES: C[C@@H]1CN(c2cc(=O)n(C)c3ncccc23)C[C@H](CN2CCN(c3ccc4c(n3)CN[C@@H]4C)CC2)O1 [Example 100, 1-methyl-4-[(2R,6S)-2-methyl-6-[[4-[(5R)-5-methyl-6,7-dihydro-5H-pyrrolo[3,4-b]pyridin-2-yl]piperazin-1-yl]methyl]morpholin-4-yl]-1,8-naphthyridin-2-one]

- Clearance of Human microsome [1]: 6.67 mL/min/kg
SMILES: CCn1c(=O)cc(N2C[C@H](CN3CCN(c4ccc5c(n4)CN[C@@H]5C)CC3)O[C@H](C)C2)c2cccnc21 [Example 101, 1-ethyl-4-[(2R,6S)-2-methyl-6-[[4-[(5R)-5-methyl-6,7-dihydro-5H-pyrrolo[3,4-b]pyridin-2-yl]piperazin-1-yl]methyl]morpholin-4-yl]-1,8-naphthyridin-2-one]
